Experimental data from ChEMBL document CHEMBL1949505, “Total synthesis and structure-activity relationships of new echinocandin-like antifungal cyclolipohexapeptides” (2012).
Bridge positions count the residues as written; N and C are the ends. Square brackets hold non-standard residues; d marks the D form. Peptide text beside a SMILES is read from it. * marks the point of attachment. 2Naphthoyl(6-heptyloxy) = CCCCCCCOc1ccc2cc(C(=O)*)ccc2c1; 2Naphthoyl(6-octyloxy) = CCCCCCCCOc1ccc2cc(C(=O)*)ccc2c1; X2 = CCCCCCCOc1ccc(-c2ccc(-c3ccc(C(=O)*)cc3)cc2)cc1; Pro(4S-NH2) = N[C@@H]1CN[C@H](C(=O)O)C1; hTyr = N[C@@H](CCc1ccc(O)cc1)C(=O)O; Orn = NCCC[C@H](N)C(=O)O

Tests used:
Format in all cases: functional
[1] = tested on: Candida parapsilosis; test: Antifungal activity against Candida parapsilosis after 24 hrs by serial dilution method; conditions: Lodderomyces parapsilosis
[2] = tested on: Candida tropicalis; test: Antifungal activity against Candida tropicalis after 24 hrs by serial dilution method
[3] = tested on: Trichophyton rubrum; test: Antifungal activity against Trichophyton rubrum after 7 days by serial dilution method; conditions: 168 h
[4] = tested on: Aspergillus fumigatus; test: Antifungal activity against Aspergillus fumigatus after 7 days by serial dilution method; conditions: 168 h
[5] = tested on: Pichia kudriavzevii; test: Antifungal activity against Candida krusei after 24 hrs by serial dilution method
[6] = tested on: Candida albicans; test: Antifungal activity against Candida albicans after 24 hrs by serial dilution method
[7] = tested on: Cryptococcus neoformans; test: Antifungal activity against Cryptococcus neoformans after 72 hrs by serial dilution method

| SMILES | MIC80 [1] | MIC80 [2] | MIC80 [3] | MIC80 [4] | MIC80 [5] | MIC80 [6] | MIC80 [7] |
| --- | --- | --- | --- | --- | --- | --- | --- |
| CCCCCCCOc1ccc(-c2ccc(-c3ccc(C(=O)N[C@H]4CCCNC(=O)[C@@H]5C[C@H](N)CN5C(=O)[C@H](CCCN)NC(=O)[C@H](CCc5ccc(O)cc5)NC(=O)[C@@H]5CCCN5C(=O)[C@H]([C@@H](C)O)NC4=O)cc3)cc2)cc1.Cc1ccc(S(=O)(=O)O)cc1 (X2-[Orn]TP[hTyr][Orn][Pro(4S-NH2)]; lactam 1-C) | 2 µg/mL | 8 µg/mL | 16 µg/mL | 0.5 µg/mL | 1 µg/mL | 0.25 µg/mL | 16 µg/mL |
| CCCCCCCOc1ccc(-c2ccc(-c3ccc(C(=O)N[C@H]4CCCNC(=O)[C@@H]5C[C@H](N)CN5C(=O)[C@H](CCCCN)NC(=O)[C@H](CCc5ccc(O)cc5)NC(=O)[C@@H]5CCCN5C(=O)[C@H](C(C)C)NC4=O)cc3)cc2)cc1.Cc1ccc(S(=O)(=O)O)cc1 (X2-[Orn]VP[hTyr]K[Pro(4S-NH2)]; lactam 1-C) | 4 µg/mL | 16 µg/mL | 16 µg/mL | 1 µg/mL | 2 µg/mL | 1 µg/mL | 32 µg/mL |
| CCCCCCCOc1ccc(-c2ccc(-c3ccc(C(=O)N[C@H]4CCCNC(=O)[C@@H]5C[C@H](N)CN5C(=O)[C@H](CCCN)NC(=O)[C@H](CCc5ccc(O)cc5)NC(=O)[C@@H]5CCCN5C(=O)[C@H](C(C)C)NC4=O)cc3)cc2)cc1.Cc1ccc(S(=O)(=O)O)cc1 (X2-[Orn]VP[hTyr][Orn][Pro(4S-NH2)]; lactam 1-C) | 8 µg/mL | 16 µg/mL | 32 µg/mL | 1 µg/mL | 2 µg/mL | 1 µg/mL | 64 µg/mL |
| CCCCCCCOc1ccc2cc(C(=O)N[C@H]3CCCNC(=O)[C@@H]4C[C@H](N)CN4C(=O)[C@H](CCCN)NC(=O)[C@H](CCc4ccc(O)cc4)NC(=O)[C@@H]4CCCN4C(=O)[C@H]([C@@H](C)O)NC3=O)ccc2c1.Cc1ccc(S(=O)(=O)O)cc1 ({2Naphthoyl(6-heptyloxy)}-[Orn]TP[hTyr][Orn][Pro(4S-NH2)]; lactam 1-C) | 4 µg/mL | 32 µg/mL | 32 µg/mL | 1 µg/mL | 1 µg/mL | 0.25 µg/mL | 32 µg/mL |
| CCCCCCCOc1ccc2cc(C(=O)N[C@H]3CCCNC(=O)[C@@H]4C[C@H](N)CN4C(=O)[C@H](CCCCN)NC(=O)[C@H](CCc4ccc(O)cc4)NC(=O)[C@@H]4CCCN4C(=O)[C@H](C(C)C)NC3=O)ccc2c1.Cc1ccc(S(=O)(=O)O)cc1 ({2Naphthoyl(6-heptyloxy)}-[Orn]VP[hTyr]K[Pro(4S-NH2)]; lactam 1-C) | 4 µg/mL | 32 µg/mL | 32 µg/mL | 1 µg/mL | 2 µg/mL | 0.5 µg/mL | 32 µg/mL |
| CCCCCCCOc1ccc2cc(C(=O)N[C@H]3CCCNC(=O)[C@@H]4C[C@H](N)CN4C(=O)[C@H](CCCN)NC(=O)[C@H](CCc4ccc(O)cc4)NC(=O)[C@@H]4CCCN4C(=O)[C@H](C(C)C)NC3=O)ccc2c1.Cc1ccc(S(=O)(=O)O)cc1 ({2Naphthoyl(6-heptyloxy)}-[Orn]VP[hTyr][Orn][Pro(4S-NH2)]; lactam 1-C) | 4 µg/mL | 32 µg/mL | 32 µg/mL | 0.5 µg/mL | 2 µg/mL | 1 µg/mL | 32 µg/mL |
| CCCCCCCCOc1ccc2cc(C(=O)N[C@H]3CCCNC(=O)[C@@H]4C[C@H](N)CN4C(=O)[C@H](CCCCN)NC(=O)[C@H](CCc4ccc(O)cc4)NC(=O)[C@@H]4CCCN4C(=O)[C@H]([C@@H](C)O)NC3=O)ccc2c1.Cc1ccc(S(=O)(=O)O)cc1 ({2Naphthoyl(6-octyloxy)}-[Orn]TP[hTyr]K[Pro(4S-NH2)]; lactam 1-C) | 4 µg/mL | 32 µg/mL | 32 µg/mL | 1 µg/mL | 1 µg/mL | 0.5 µg/mL | 32 µg/mL |
| CCCCCCCCOc1ccc2cc(C(=O)N[C@H]3CCCNC(=O)[C@@H]4C[C@H](N)CN4C(=O)[C@H](CCCN)NC(=O)[C@H](CCc4ccc(O)cc4)NC(=O)[C@@H]4CCCN4C(=O)[C@H]([C@@H](C)O)NC3=O)ccc2c1.Cc1ccc(S(=O)(=O)O)cc1 ({2Naphthoyl(6-octyloxy)}-[Orn]TP[hTyr][Orn][Pro(4S-NH2)]; lactam 1-C) | 4 µg/mL | 4 µg/mL | 32 µg/mL | 1 µg/mL | 1 µg/mL | 0.5 µg/mL | 32 µg/mL |
| CCCCCCCCOc1ccc2cc(C(=O)N[C@H]3CCCNC(=O)[C@@H]4C[C@H](N)CN4C(=O)[C@H](CCCCN)NC(=O)[C@H](CCc4ccc(O)cc4)NC(=O)[C@@H]4CCCN4C(=O)[C@H](C(C)C)NC3=O)ccc2c1.Cc1ccc(S(=O)(=O)O)cc1 ({2Naphthoyl(6-octyloxy)}-[Orn]VP[hTyr]K[Pro(4S-NH2)]; lactam 1-C) | 4 µg/mL | 32 µg/mL | 32 µg/mL | 1 µg/mL | 2 µg/mL | 1 µg/mL | 32 µg/mL |
| CCCCCCCCOc1ccc2cc(C(=O)N[C@H]3CCCNC(=O)[C@@H]4C[C@H](N)CN4C(=O)[C@H](CCCN)NC(=O)[C@H](CCc4ccc(O)cc4)NC(=O)[C@@H]4CCCN4C(=O)[C@H](C(C)C)NC3=O)ccc2c1.Cc1ccc(S(=O)(=O)O)cc1 ({2Naphthoyl(6-octyloxy)}-[Orn]VP[hTyr][Orn][Pro(4S-NH2)]; lactam 1-C) | 2 µg/mL | 16 µg/mL | 16 µg/mL | 1 µg/mL | 2 µg/mL | 0.5 µg/mL | 16 µg/mL |
